Reference: patent US20230085307A1, “PYRIDAZINONE COMPOUND AND HERBICIDE” (NISSAN CHEMICAL CORPORATION, priority 2019, published 2023)

What was measured:
lambsquarters [1] = experiment: Test Example 5: herbicidal effect by foliage application, plastic box (Table 20, symbol O); format: in vivo, lambsquarters (Chenopodium album); conditions: foliage application, AAH 320 g/ha, evaluated three weeks after application
In short: (§1)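 Sow seeds spot-wise in sterilized diluvial soil; cover with ~1.5 cm soil. Grow 14 days in greenhouse, 25° C. to 30° C. Spray foliage with emulsion diluted to predetermined amount. Rate effect after 3 weeks.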

barnyard grass [2] = experiment: Test Example 5: herbicidal effect by foliage application, plastic box (Table 20, symbol H); format: in vivo, barnyard grass (Echinochloa crus-galli); conditions: foliage application, AAH 320 g/ha, evaluated three weeks after application
In short: as §1

velvetleaf [3] = experiment: Test Example 5: herbicidal effect by foliage application, plastic box (Table 20, symbol M); format: in vivo, velvetleaf (Abutilon theophrasti); conditions: foliage application, AAH 320 g/ha, evaluated three weeks after application
In short: as §1

barnyard grass [4] = experiment: Test Example 3: herbicidal effect by foliage application, Wagner pot (Table 18, symbol H); format: in vivo, barnyard grass (Echinochloa crus-galli); conditions: amount of applied herbicide 320 g/ha
In short: (§2)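 Plants were sown in alluvial soil held under 0.1–0.5 cm standing water and grown 14 days in a greenhouse at 25–30 °C. An emulsifiable formulation, water-diluted to the set dose, was then sprayed onto the foliage, and effects were scored three weeks later using previously defined criteria.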

wild oat [5] = experiment: Test Example 5: herbicidal effect by foliage application, plastic box (Table 20, symbol I); format: in vivo, wild oat (Avena fatua); conditions: foliage application, AAH 320 g/ha, evaluated three weeks after application
In short: as §1

windgrass [6] = experiment: Test Example 5: herbicidal effect by foliage application, plastic box (Table 20, symbol L); format: in vivo, windgrass (Apera spica-venti); conditions: foliage application, AAH 320 g/ha, evaluated three weeks after application
In short: as §1

wild oat [7] = experiment: Test Example 4: herbicidal effect by soil treatment (Table 19, symbol I); format: in vivo, wild oat (Avena fatua); conditions: amount of applied herbicide 320 g/ha
In short: (§3)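 Soil-surface application: an emulsion agent diluted with water to the predetermined dose is sprayed uniformly over seeds lying under roughly 1.5 cm of sterilized diluvial soil. Boxes stay in a greenhouse at 25° C. to 30° C. Three weeks later, each species is graded on previously defined criteria.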

Italian ryegrass [8] = experiment: Test Example 4: herbicidal effect by soil treatment (Table 19, symbol K); format: in vivo, Italian ryegrass (Lolium multiflorum); conditions: amount of applied herbicide 320 g/ha
In short: as §3

Japanese bulrush = experiment: Test Example 1: herbicidal activity, application before weed generation under submerged conditions (Table 16, symbol B); format: in vivo, Japanese bulrush (Schoenoplectus juncoides); conditions: 320 g/ha applied herbicide
In short: (§4)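 Emulsion formulation, water-diluted to set dose, was put onto the flooded surface (4 cm depth, alluvial soil) the same day weeds were sown and 2.5-leaf rice transplanted. After 3 weeks at 25-30 °C under glass, each species was rated 0 (≤5% kill) to 5 (≥90% kill).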

rice flat sedge = experiment: Test Example 3: herbicidal effect by foliage application, Wagner pot (Table 18, symbol E); format: in vivo, rice flat sedge (Cyperus iria); conditions: amount of applied herbicide 320 g/ha
In short: as §2

oval-leafed pondweed = experiment: Test Example 1: herbicidal activity, application before weed generation under submerged conditions (Table 16, symbol C); format: in vivo, oval-leafed pondweed (Monochoria vaginalis); conditions: 320 g/ha applied herbicide
In short: as §4

persian speedwell = experiment: Test Example 5: herbicidal effect by foliage application, plastic box (Table 20, symbol R); format: in vivo, Persian speedwell (Veronica persica); conditions: foliage application, AAH 320 g/ha, evaluated three weeks after application
In short: as §1

barnyard grass [9] = experiment: Test Example 4: herbicidal effect by soil treatment (Table 19, symbol H); format: in vivo, barnyard grass (Echinochloa crus-galli); conditions: amount of applied herbicide 320 g/ha
In short: as §3

false cleavers = experiment: Test Example 4: herbicidal effect by soil treatment (Table 19, symbol Q); format: in vivo, false cleavers (Galium spurium); conditions: amount of applied herbicide 320 g/ha
In short: as §3

Italian ryegrass [10] = experiment: Test Example 5: herbicidal effect by foliage application, plastic box (Table 20, symbol K); format: in vivo, Italian ryegrass (Lolium multiflorum); conditions: foliage application, AAH 320 g/ha, evaluated three weeks after application
In short: as §1

Chinese sprangletop = experiment: Test Example 3: herbicidal effect by foliage application, Wagner pot (Table 18, symbol D); format: in vivo, chinese sprangletop (Leptochloa chinensis); conditions: amount of applied herbicide 320 g/ha
In short: as §2

blackgrass = experiment: Test Example 5: herbicidal effect by foliage application, plastic box (Table 20, symbol J); format: in vivo, blackgrass (Alopecurus myosuroides); conditions: foliage application, AAH 320 g/ha, evaluated three weeks after application
In short: as §1

lambsquarters [11] = experiment: Test Example 4: herbicidal effect by soil treatment (Table 19, symbol O); format: in vivo, lambsquarters (Chenopodium album); conditions: amount of applied herbicide 320 g/ha
In short: as §3

southern crabgrass [12] = experiment: Test Example 5: herbicidal effect by foliage application, plastic box (Table 20, symbol F); format: in vivo, southern crabgrass (Digitaria ciliaris); conditions: foliage application, AAH 320 g/ha, evaluated three weeks after application
In short: as §1

green foxtail [13] = experiment: Test Example 5: herbicidal effect by foliage application, plastic box (Table 20, symbol G); format: in vivo, green foxtail (Setaria viridis); conditions: foliage application, AAH 320 g/ha, evaluated three weeks after application
In short: as §1

chickweed = experiment: Test Example 5: herbicidal effect by foliage application, plastic box (Table 20, symbol P); format: in vivo, common chickweed (Stellaria media); conditions: foliage application, AAH 320 g/ha, evaluated three weeks after application
In short: as §1

windgrass [14] = experiment: Test Example 4: herbicidal effect by soil treatment (Table 19, symbol L); format: in vivo, windgrass (Apera spica-venti); conditions: amount of applied herbicide 320 g/ha
In short: as §3

redroot pigweed [15] = experiment: Test Example 4: herbicidal effect by soil treatment (Table 19, symbol N); format: in vivo, redroot pigweed (Amaranthus retroflexus); conditions: amount of applied herbicide 320 g/ha
In short: as §3

southern crabgrass [16] = experiment: Test Example 4: herbicidal effect by soil treatment (Table 19, symbol F); format: in vivo, southern crabgrass (Digitaria ciliaris); conditions: amount of applied herbicide 320 g/ha
In short: as §3

velvetleaf [17] = experiment: Test Example 4: herbicidal effect by soil treatment (Table 19, symbol M); format: in vivo, velvetleaf (Abutilon theophrasti); conditions: amount of applied herbicide 320 g/ha
In short: as §3

green foxtail [18] = experiment: Test Example 4: herbicidal effect by soil treatment (Table 19, symbol G); format: in vivo, green foxtail (Setaria viridis); conditions: amount of applied herbicide 320 g/ha
In short: as §3

redroot pigweed [19] = experiment: Test Example 5: herbicidal effect by foliage application, plastic box (Table 20, symbol N); format: in vivo, redroot pigweed (Amaranthus retroflexus); conditions: foliage application, AAH 320 g/ha, evaluated three weeks after application
In short: as §1

late watergrass = experiment: Test Example 1: herbicidal activity, application before weed generation under submerged conditions (Table 16, symbol A); format: in vivo, late watergrass (Echinochloa oryzicola); conditions: 320 g/ha applied herbicide
In short: as §4

Structure (SMILES): Cc1nn(C)c(=O)c(-c2c(-c3ccc(COCC(F)(F)F)cc3)sc3ccc(F)cc23)c1O [2-315]
- O: lambsquarters, herbicidal effect (criteria 0-5) (lambsquarters [1]): 5 (Herbicidal rate of 90% or more (almost completely withered))
- H: barnyard grass, herbicidal effect (criteria 0-5) (barnyard grass [2]): 5 (Herbicidal rate of 90% or more (almost completely withered))
- M: velvetleaf, herbicidal effect (criteria 0-5) (velvetleaf [3]): 5 (Herbicidal rate of 90% or more (almost completely withered))
- herbicidal effect on H: barnyard grass (barnyard grass [4]): 5 (Herbicidal rate of 90% or more (almost completely withered))
- I: wild oat, herbicidal effect (criteria 0-5) (wild oat [5]): 0 (Herbicidal rate of 5% or less (almost no effect))
- L: windgrass, herbicidal effect (criteria 0-5) (windgrass [6]): 5 (Herbicidal rate of 90% or more (almost completely withered))
- herbicidal effect on I: wild oat (wild oat [7]): 0 (Herbicidal rate of 5% or less (almost no effect))
- herbicidal effect on K: Italian ryegrass (Italian ryegrass [8]): 4 (Herbicidal rate of 70% or more and less than 90%)
- Herbicidal effect on B: Japanese bulrush (grade 0-5) (Japanese bulrush): 0 (Herbicidal rate of 5% or less (almost no effect))
- herbicidal effect on E: rice flat sedge (rice flat sedge): 5 (Herbicidal rate of 90% or more (almost completely withered))
- Herbicidal effect on C: oval-leafed pondweed (grade 0-5) (oval-leafed pondweed): 0 (Herbicidal rate of 5% or less (almost no effect))
- R: persian speedwell, herbicidal effect (criteria 0-5) (persian speedwell): 5 (Herbicidal rate of 90% or more (almost completely withered))
- herbicidal effect on H: barnyard grass (barnyard grass [9]): 3 (Herbicidal rate of 40% or more and less than 70%)
- herbicidal effect on Q: false cleavers (false cleavers): 5 (Herbicidal rate of 90% or more (almost completely withered))
- K: Italian ryegrass, herbicidal effect (criteria 0-5) (Italian ryegrass [10]): 5 (Herbicidal rate of 90% or more (almost completely withered))
- herbicidal effect on D: Chinese sprangletop (Chinese sprangletop): 3 (Herbicidal rate of 40% or more and less than 70%)
- J: blackgrass, herbicidal effect (criteria 0-5) (blackgrass): 5 (Herbicidal rate of 90% or more (almost completely withered))
- herbicidal effect on O: lambsquarters (lambsquarters [11]): 5 (Herbicidal rate of 90% or more (almost completely withered))
- F: southern crabgrass, herbicidal effect (criteria 0-5) (southern crabgrass [12]): 4 (Herbicidal rate of 70% or more and less than 90%)
- G: green foxtail, herbicidal effect (criteria 0-5) (green foxtail [13]): 5 (Herbicidal rate of 90% or more (almost completely withered))
- P: chickweed, herbicidal effect (criteria 0-5) (chickweed): 5 (Herbicidal rate of 90% or more (almost completely withered))
- herbicidal effect on L: windgrass (windgrass [14]): 0 (Herbicidal rate of 5% or less (almost no effect))
- herbicidal effect on N: redroot pigweed (redroot pigweed [15]): 5 (Herbicidal rate of 90% or more (almost completely withered))
- herbicidal effect on F: southern crabgrass (southern crabgrass [16]): 2 (Herbicidal rate of 20% or more and less than 40%)
- herbicidal effect on M: velvetleaf (velvetleaf [17]): 4 (Herbicidal rate of 70% or more and less than 90%)
- herbicidal effect on G: green foxtail (green foxtail [18]): 3 (Herbicidal rate of 40% or more and less than 70%)
- N: redroot pigweed, herbicidal effect (criteria 0-5) (redroot pigweed [19]): 5 (Herbicidal rate of 90% or more (almost completely withered))
- Herbicidal effect on A: late watergrass (grade 0-5) (late watergrass): 4 (Herbicidal rate of 70% or more and less than 90%)
